Tests used:
[1] = target: T1, Induced myeloid leukemia cell differentiation protein Mcl-1/Bcl-2-like protein 11 (Homo sapiens) (UniProt Q07820+O43521); assay: Inhibition of GST-Mcl-1/BH3 domain of Bim interaction at 25 uM after 1 hr by ELISA; format: protein assay
[2] = target: Induced myeloid leukemia cell differentiation protein Mcl-1/Bcl-2-like protein 11 (Homo sapiens, UniProt Q07820); assay: Inhibition of GST-Mcl-1/BH3 domain of Bim interaction after 1 hr by ELISA; format: protein assay
[3] = target: T1, Induced myeloid leukemia cell differentiation protein Mcl-1/Bcl-2-like protein 11 (Homo sapiens); assay: Inhibition of GST-Mcl-1/BH3 domain of Bim interaction in human MDA-MB-468 cells at 25 uM after 24 hrs by Western blotting relative to control; format: cell-based
[4] = target: T1, Induced myeloid leukemia cell differentiation protein Mcl-1/Bcl-2-like protein 11 (Homo sapiens); assay: Inhibition of GST-Mcl-1/BH3 domain of Bim interaction in human MDA-MB-468 cells at 50 uM after 24 hrs by Western blotting relative to control; format: cell-based
[5] = Solubility of the compound in human MDA-MB-468 cell culture medium at >100 uM; format: physicochemical
[6] = tested on: MDA-MB-468; assay: Growth inhibition of human MDA-MB-468 cells at 100 uM after 72 to 120 hrs by MTT assay; format: functional; details: read-out: GI

Sequence of Induced myeloid leukemia cell differentiation protein Mcl-1/Bcl-2-like protein 11 (Q07820 whole entry, the tested form may be a part): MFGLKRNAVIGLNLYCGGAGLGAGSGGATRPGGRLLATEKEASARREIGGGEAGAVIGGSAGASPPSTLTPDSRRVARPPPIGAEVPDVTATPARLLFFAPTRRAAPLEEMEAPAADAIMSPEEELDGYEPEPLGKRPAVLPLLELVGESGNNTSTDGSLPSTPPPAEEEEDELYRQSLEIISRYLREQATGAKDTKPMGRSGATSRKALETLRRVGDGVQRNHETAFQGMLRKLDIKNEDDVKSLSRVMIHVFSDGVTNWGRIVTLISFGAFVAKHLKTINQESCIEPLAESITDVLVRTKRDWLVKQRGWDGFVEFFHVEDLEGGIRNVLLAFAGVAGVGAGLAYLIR
Sequence of Induced myeloid leukemia cell differentiation protein Mcl-1/Bcl-2-like protein 11 (O43521 whole entry, further chain, the tested form may be a part): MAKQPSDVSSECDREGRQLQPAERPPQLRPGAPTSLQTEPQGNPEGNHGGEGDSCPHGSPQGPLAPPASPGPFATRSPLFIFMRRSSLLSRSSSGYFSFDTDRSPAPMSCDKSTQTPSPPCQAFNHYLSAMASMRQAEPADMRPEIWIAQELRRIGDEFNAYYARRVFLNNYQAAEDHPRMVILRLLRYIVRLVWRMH
T1 sequence (O43521 whole entry, looked up, the tested form may be a part): as the sequence (O43521 whole entry, further chain, the tested form may be a part) above
T1 sequence (Q07820 whole entry, looked up, the tested form may be a part): as the sequence (Q07820 whole entry, the tested form may be a part) above

SMILES	inhibition [1] [%]	other results
C=C(C)CNC(=O)C(C)(C)[C@@H]1C=C[C@@]2(COCOC)[C@@H](OC(=O)NC(C)C)CC(C)=C[C@H]2C1 (relative stereo)	31.2	–
COCOC[C@@]12C=C[C@@H](C(C)(C)C(=O)OCc3ccccc3)C[C@@H]1C=C(C)C[C@@H]2OCc1ccccc1	64.9	IC50 [2]: 13.1 µM
COC(=O)C(C)(C)[C@@H]1C=C[C@@]2(CO)[C@@H](O)CC(C)=C[C@H]2C1	25	–
COCOC[C@@]12C=C[C@@H](C(C)(C)C(=O)NCc3ccc(Br)cc3)C[C@@H]1C=C(C)C[C@@H]2OC(=O)NC1CCCCC1 (relative stereo)	64.4	IC50 [2]: 17 µM
C=C(C)CNC(=O)C(C)(C)[C@@H]1C=C[C@@]2(COCOC)[C@@H](OC(=O)NC3CCCC3)CC(C)=C[C@H]2C1 (relative stereo)	19.7	–
C=C(C)CNC(=O)C(C)(C)[C@@H]1C=C[C@@]2(COCOC)[C@@H](OC(=O)NC3CCCCC3)CC(C)=C[C@H]2C1 (relative stereo)	53.8	–
COCOC[C@@]12C=C[C@@H](C(C)(C)C(=O)N3CCOCC3)C[C@@H]1C=C(C)C[C@@H]2OC(=O)NC1CCCCC1 (relative stereo)	26.5	–
CC(C)Cc1cc(-c2ccc(-c3ccc(CCC(=O)O)cc3CC(C)C)cc2Cc2ccccc2)ccc1OCC(=O)O	–	inhibition [3]: 61.9%; inhibition [4]: 55.7%
O=C(O)CCc1ccc(-c2ccc(-c3ccc(OCC(=O)O)cc3)cc2)cc1	–	inhibition [3]: 96.9%; inhibition [4]: 107%
C=C(C)CNC(=O)C(C)(C)C1C=CC2(COCOC)C(C=C(C)CC2OC(=O)Nc2cccc(Cl)c2)C1 (racemic)	74.3	solubility [5]: Insoluble; inhibition [3]: 70.6%; inhibition of growth at 100 µM [6]: 80%; IC50 [2]: 8.3 µM; inhibition [4]: 46.4%

More lines, main results first:

inhibition [1] [%]	SMILES	other results
53.9	COCOC[C@@]12C=C[C@@H](C(C)(C)C(=O)NCc3ccccc3)C[C@@H]1C=C(C)C[C@@H]2OC(=O)NC1CCCCC1 (relative stereo)	–
61.8	C=C(C)CNC(=O)C(C)(C)[C@@H]1C=C[C@@]2(COCOC)[C@@H](OC(=O)Nc3ccccc3)CC(C)=C[C@H]2C1 (relative stereo)	–
18.2	COCOC[C@@]12C=C[C@@H](C(C)(C)C(=O)O)C[C@@H]1C=C(C)C[C@@H]2O	–
17.1	C=C(C)CNC(=O)C(C)(C)[C@@H]1C=C[C@@]2(COCOC)[C@@H](O)CC(C)=C[C@H]2C1	–
34.8	COCOC[C@@]12C=C[C@@H](C(C)(C)C(=O)OC)C[C@@H]1C=C(C)C[C@@H]2OC(=O)NC1CCCCC1	–
40.3	C=C(C)CNC(=O)C(C)(C)[C@@H]1C=C[C@@]2(COCOC)[C@@H](OC(=O)NCc3ccccc3)CC(C)=C[C@H]2C1 (relative stereo)	–
31.2	C=C(C)COC(=O)C(C)(C)[C@@H]1C=C[C@@]2(COCOC)[C@@H](OCC(=C)C)CC(C)=C[C@H]2C1	–

From ChEMBL document CHEMBL2069165, “Synthesis and evaluation of substituted hexahydronaphthalenes as novel inhibitors of the Mcl-1/BimBH3 interaction” (Bioorg Med Chem Lett, 2012)
